Test results as given in article PMC7942396, “Drug Repurposing Screen for Compounds Inhibiting the Cytopathic Effect of SARS-CoV-2” (Frontiers in Pharmacology, 2021).
Structures can show the parent of a compound that is named as a salt. Where two headings read alike, the source gives them in different places.

Assays:
[1] = test system: SARS-CoV-2 (USA_WA1/2020); assay: microbe, parasite or virus in culture; format: cell-based
in vitro = details: African green monkey
[2] = Severe acute respiratory syndrome coronavirus 2, Vero C1008, 72 h, read-out: CPE EC50
[3] = Severe acute respiratory syndrome coronavirus 2, Vero C1008, […], DMSO 0%, no-virus control 100%, hit confirmation, read-out: CPE % efficacy
[4] = Severe acute respiratory syndrome coronavirus 2, Vero C1008, SARS-CoV-2 CPE assay, Vero E6 cells, confirmed anti-SARS-CoV-2 compounds, read-out: CPE EC50
[5] = Severe acute respiratory syndrome coronavirus 2, Vero C1008, SARS-CoV-2 CPE assay, Vero E6 cells, efficacy, read-out: CPE % Efficacy
[6] = Severe acute respiratory syndrome coronavirus 2, Vero C1008, SARS-CoV-2 CPE assay, Vero E6 cells, read-out: CPE % Efficacy
[7] = Severe acute respiratory syndrome coronavirus 2, Vero C1008, SARS-CoV-2 CPE assay, Vero E6 cells, read-out: CPE EC50

| SMILES | cytotoxicity at 72 h (in vitro) [%] | EC50 [1, 4] [µM] | Emax [1, 5] [%] | Emax [1, 6] [%] | EC50 [1, 7] [µM] | cytotoxicity (in vitro) [%] | CC50 (in vitro) [µM] | also measured |
| --- | --- | --- | --- | --- | --- | --- | --- | --- |
| CCCN1CCN(c2ccc(C(=O)NC3(C(=O)NCC#N)CCCCC3)cc2)CC1 [Balicatib, reference compound] | < 30 | – | – | – | – | – | – | EC50 [1, 2]: 2 µM; Emax [1, 3]: 100% |
| CC(=O)Oc1ccccc1C(=O)Nc1ncc([N+](=O)[O-])s1 [Nitazoxanide] | 54.7 | 6.31 | 73.7 | – | – | – | – | CC50 at 72 h (in vitro): 12.6 µM |
| N#Cc1ccc2[nH]cc(CCCCN3CCN(c4ccc5oc(C(N)=O)cc5c4)CC3)c2c1 [Vilazodone Hydrochloride] | 25.3 | – | – | 90.8 | 12.6 | – | – | CC50 at 72 h (in vitro): 19.9 µM |
| Fc1ccc(C(c2ccc(F)cc2)N2CCN(C/C=C/c3ccccc3)CC2)cc1 [Flunarizine, reference compound] | – | – | – | – | – | < 30 | – | Emax [1, 3]: 94.1% |
| CCOC(=O)C1=C(COCCN)NC(C)=C(C(=O)OC)C1c1ccccc1Cl (centres unmarked) [Amlodipine] | – | – | – | 99.8 | 12.6 | 0 | – | – |
| Oc1ccc(-c2nc(-c3ccncc3)c(-c3ccc(F)cc3)[nH]2)cc1 [SB-202190] | 62.4 | 3.98 | 95.8 | – | – | – | – | – |
| COc1ccc(-c2csc(NC(=O)[C@H]3CCCCN3S(=O)(=O)c3ccc(C)cc3)n2)cc1 [ML277] | – | 10 | 45.4 | – | – | 0 | – | – |
| COc1cc(C(C)=O)ccc1OCCCN1CCC(c2noc3cc(F)ccc23)CC1 [Iloperidone] | 16.4 | – | – | 108 | 12.6 | – | – | CC50 at 72 h (in vitro): 15.8 µM |
| CC1CCCCN1CCCOC(=O)c1ccc(OC2CCCCC2)cc1 (centres unmarked) [Cyclomethycaine] | 9.6 | 8.91 | 79.7 | – | – | – | – | CC50 at 72 h (in vitro): 17.8 µM |
| O=C(/C=C/c1ccccc1)NC(NC(=S)Nc1cccc2cccnc12)C(Cl)(Cl)Cl (centres unmarked) [Salubrinal] | – | 10 | 38.3 | – | – | 15.9 | 5.01 | – |
| CCc1ccc(N(CC(C)C)S(=O)(=O)c2ccc(OCC3CCOCC3)c(CO)c2)cc1 [GSK-2981278] | 51.1 | – | – | 36 | 14.1 | – | – | CC50 at 72 h (in vitro): 12.6 µM |
| c1ccc(-c2cc(CCC3CCNCC3)c3ccccc3n2)cc1 [Pipequaline] | 108 | 10 | 33.3 | – | – | – | – | CC50 at 72 h (in vitro): 12.6 µM |
| COc1c(-c2ccc3cc(NS(C)(=O)=O)ccc3c2)cc(-n2ccc(=O)[nH]c2=O)cc1C(C)(C)C [ABT-333] | 42.5 | – | – | 48.7 | 12.6 | – | – | – |
| CC(CN(C)C)CN1c2ccccc2CCc2ccccc21 (centres unmarked) [Trimipramine maleate] | – | 10 | 51.8 | – | – | 19.8 | 15.8 | – |
| COc1cc(N2CCN(C)CC2)ccc1Nc1nccc(-c2cn(C)c3cnccc23)n1 [AZ-191] | – | 8.91 | 79.2 | – | – | 31.2 | 11.2 | – |
| COC(=O)C1=C(C)NC(C)=C(C(=O)OCCN(C)Cc2ccccc2)C1c1cccc([N+](=O)[O-])c1 (centres unmarked) [Nicardipine] | – | – | – | 56.3 | 12.6 | 32.8 | 12.6 | – |
| CC/C(=C(\c1ccccc1)c1ccc(OCCN(C)C)cc1)c1ccccc1 [Tamoxifen] | – | – | 102 | – | – | 93.9 | – | – |
| O=C(Nc1ccc(-c2ccnc(Nc3ccc(N4CCOCC4)cc3)n2)cc1)C1CCCN1 (centres unmarked) [XL019] | – | – | – | 53.9 | 14.1 | 61.8 | 8.91 | – |
| CC1=C(c2ccc(O)cc2)[C@H](c2ccc(OCCN3CCCCC3)cc2)Oc2cc(O)ccc21 [Acolbifene] | – | 5.62 | 56.1 | – | – | 54.1 | 12.6 | – |
| CN(C)CCCN1c2ccccc2Sc2ccc(Cl)cc21 [Chlorpromazine] | – | – | – | 102 | 12.6 | 45.6 | 11.2 | – |
| NC(=O)c1cccc2cn(-c3ccc([C@@H]4CCCNC4)cc3)nc12 [Niraparib] | – | – | – | – | – | 24.3 | 15.8 | Emax ([1]; Severe acute respiratory syndrome coronavirus 2, Vero C1008, read-out: CPE % Efficacy): 134%; EC50 ([1]; Severe acute respiratory syndrome coronavirus 2, Vero C1008, read-out: CPE EC50): 11.2 µM |
| CN1CCN(C(c2ccccc2)c2ccc(Cl)cc2)CC1 (centres unmarked) [Chlorcyclizine] | 18 | – | – | 67.4 | 12.6 | – | – | CC50 at 72 h (in vitro): 22.4 µM |
| CN(C)CCOC(C)(c1ccccc1)c1ccc(Cl)cc1 (centres unmarked) [Chlorphenoxamine] | 36.9 | 6.31 | 75.3 | – | – | – | – | CC50 at 72 h (in vitro): 11.2 µM |

| SMILES | cytotoxicity at 72 h (in vitro) [%] | EC50 [1, 4] [µM] | Emax [1, 5] [%] | Emax [1, 6] [%] | EC50 [1, 7] [µM] | cytotoxicity (in vitro) [%] | CC50 (in vitro) [µM] | also measured |
| --- | --- | --- | --- | --- | --- | --- | --- | --- |
| CC(CN1c2ccccc2Sc2ccccc21)N(C)C (centres unmarked) [Promethazine] | 15.4 | 11.2 | 94 | – | – | – | – | CC50 at 72 h (in vitro): 15.8 µM |
| CN1CCC(c2cn(C)c3ccc(OS(=O)(=O)c4c(F)cccc4F)cc23)CC1 [SGS 518] | – | – | – | 101 | 12.6 | 18.2 | 8.91 | – |
| S=C(NCc1ccc2c(c1)OCO2)N1CCN(c2ncnc3c2oc2ccccc23)CC1 [Amuvatinib] | – | 3.55 | 69.8 | – | – | 30.1 | 3.16 | – |
| Cc1ccc(NC(=O)c2ccc(CN3CCN(C)CC3)cc2)cc1Nc1nccc(-c2cccnc2)n1 [Imatinib, reference compound] | – | – | – | – | – | < 30 | – | Emax [1, 3]: 119% |
| CN1CCC(CN2c3ccccc3Sc3ccccc32)C1 (centres unmarked) [Methdilazine hydrochloride, reference compound] | – | – | – | – | – | < 30 | – | EC50 [1, 2]: 10 µM; Emax [1, 3]: 86.4% |
| CSc1ccc(C(=O)/C=C/c2cc(C)c(OC(C)(C)C(=O)O)c(C)c2)cc1 [Elafibranor] | 0 | – | – | 55.7 | 19.9 | – | – | – |
| CCOC(=O)c1c(CSc2ccccc2)n(C)c2cc(Br)c(O)c(CN(C)C)c12 [Arbidol] | – | 11.2 | 105 | – | – | 17.3 | 12.6 | – |
| O=C1Nc2ccc(Cl)cc2[C@@](C#CC2CC2)(C(F)(F)F)O1 [Efavirenz] | – | – | – | 90.6 | 14.1 | 24.3 | – | – |
| CC(/C=C/[C@@H]1C[C@]1(C)c1ccc2c(c1)C(C)(C)CCC2(C)C)=C\C(=O)O [AGN-194204] | 36.8 | 11.2 | 57 | – | – | – | – | – |
| CCOC(=O)[C@H](CCc1ccccc1)N[C@H]1CCc2ccccc2N(CC(=O)O)C1=O [Benazepril] | – | – | – | 108 | 12.6 | 0 | – | – |
| C=CC(=O)N[C@H]1CCOC[C@H]1Nc1ncc2cc(-c3c(Cl)c(OC)cc(OC)c3Cl)ccc2n1 [BLU-554] | 0 | – | – | 31.5 | 12.6 | – | – | – |
| CC(C)[C@@]1(NC(=O)[C@@H]2C[C@@H]3c4cccc5[nH]cc(c45)C[C@H]3N(C)C2)O[C@@]2(O)[C@@H]3CCCN3C(=O)[C@H](Cc3ccccc3)N2C1=O [Dihydroergocristine] | – | – | – | 32 | 14.1 | 11.5 | 15.8 | – |
| COC(=O)[C@]1(C)CC[C@]2(C)CC[C@]3(C)C4=CC=C5C(=CC(=O)C(O)=C5C)[C@]4(C)CC[C@@]3(C)[C@@H]2C1 [Pristimerin, reference compound] | – | – | – | – | – | – | 1.1 | EC50 [1, 2]: 0.11 µM; Emax [1, 3]: 87.4% |
| Cc1c(O)cccc1C(=O)N[C@@H](CSc1ccccc1)[C@H](O)CN1C[C@H]2CCCC[C@H]2C[C@H]1C(=O)NC(C)(C)C [Nelfinavir Mesylate] | – | 3.55 | 106 | – | – | 96.9 | 12.6 | – |
| Nc1nc(Nc2ccc3c(c2)CC[C@@H](N2CCCC2)CC3)nn1-c1cc2c(nn1)-c1ccccc1CCC2 [Bemcentinib] | 115 | 3.55 | 69.6 | – | – | – | – | CC50 at 72 h (in vitro): 11.2 µM |
| Oc1c(I)cc(Cl)c2cccnc12 [Clioquinol] | 62.2 | 6.31 | 55.1 | – | – | – | – | CC50 at 72 h (in vitro): 3.16 µM |
| CC(=O)O[C@@H]1C[C@H](O)[C@@]23CO[C@@H](O)[C@]1(C)[C@@H]2C[C@@H](O)[C@]1(C)[C@@H]3C(=O)[C@H](OC(C)=O)[C@@]2(C)[C@H](c3ccoc3)C[C@H]3O[C@]321 [Toosendanin] | – | 1.19 | 88.9 | – | – | 40.9 | 2.66 | – |
| CC(=O)OC[C@]12C[C@H](OC(=O)CC(C)C)C(C)=C[C@H]1O[C@@H]1[C@H](O)[C@@H](O)[C@@]2(C)[C@]12CO2 [HT-2 Toxin] | – | – | – | – | – | 98 | 0.13 | CPE % Efficacy [1]: 32.4%; EC50 ([1]; read-out: CPE EC50): 0.0226 µM |
| COc1c(C)cnc(Cn2cnc3c(Cl)nc(N)nc32)c1C [CNF-2024] | – | 2.24 | 51.3 | – | – | 21.1 | 0.35 | – |
| Clc1ccc2c(c1)C(N1CCNCC1)=Nc1ccccc1O2 [Amoxapine] | – | – | 34.1 | – | – | 13.9 | – | – |
| COc1ccc2cc1Oc1ccc(cc1)C[C@H]1c3c(cc4c(c3Oc3cc5c(cc3OC)CCN(C)[C@@H]5C2)OCO4)CCN1C [Cepharanthine] | – | 1.41 | 91.3 | – | – | 105 | 11.2 | – |
| Cn1c(NC[C@@H](N)Cc2ccccc2)nc(-c2ccncc2)c(-c2ccc3ccccc3c2)c1=O [AMG-548] | 35.4 | 8.91 | 75 | – | – | – | – | CC50 at 72 h (in vitro): 17.8 µM |
| COC(=O)[C@H]1[C@H]2C[C@@H]3c4[nH]c5cc(OC)ccc5c4CCN3C[C@H]2C[C@@H](OC(=O)c2cc(OC)c(OC)c(OC)c2)[C@@H]1OC [Reserpine] | – | 11.2 | 91.8 | – | – | 13.4 | 19.9 | – |
